From article PMC9005681, “Use of AD Informer Set compounds to explore validity of novel targets in Alzheimer's disease pathology” (Alzheimer's & Dementia : Translational Research & Clinical …, 2022)
Values joined by “and” are separate entries in the source; they are usually repeats but may differ in a detail not shown here. Identical values can stand only once.

How the values were obtained:
Experiment in all cases: PDSP GPCR panel primary binding assays at 10 μM
[1] = target: T1, cloned human or rodent CNS receptors, channels, and transporters (PDSP panel) (Homo sapiens, UniProt P28221); conditions: primary assay
T1 construct: expressed in transfected cells
T1 sequence (P28221 whole entry): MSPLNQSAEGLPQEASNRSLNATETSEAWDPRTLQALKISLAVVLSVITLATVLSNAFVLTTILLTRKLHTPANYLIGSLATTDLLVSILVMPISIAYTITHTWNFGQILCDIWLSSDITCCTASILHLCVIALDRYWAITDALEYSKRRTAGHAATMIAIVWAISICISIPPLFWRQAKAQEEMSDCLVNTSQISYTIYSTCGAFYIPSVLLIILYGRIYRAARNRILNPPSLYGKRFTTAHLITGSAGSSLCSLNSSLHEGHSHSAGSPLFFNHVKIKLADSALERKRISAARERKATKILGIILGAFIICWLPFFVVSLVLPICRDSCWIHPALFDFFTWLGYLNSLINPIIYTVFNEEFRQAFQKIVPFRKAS
Outline: (§1)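 Each compound is first screened once at 10 μM, in quadruplicate, for radioligand displacement. Where mean displacement passes 50%, an 11-point dose-response in triplicate follows at that target, except at H3, PBR and GABAA.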

[2] = target: T2, cloned human or rodent CNS receptors, channels, and transporters (PDSP panel) (Homo sapiens, UniProt P28222); conditions: primary assay
T2 construct: expressed in transfected cells
T2 sequence (P28222 whole entry): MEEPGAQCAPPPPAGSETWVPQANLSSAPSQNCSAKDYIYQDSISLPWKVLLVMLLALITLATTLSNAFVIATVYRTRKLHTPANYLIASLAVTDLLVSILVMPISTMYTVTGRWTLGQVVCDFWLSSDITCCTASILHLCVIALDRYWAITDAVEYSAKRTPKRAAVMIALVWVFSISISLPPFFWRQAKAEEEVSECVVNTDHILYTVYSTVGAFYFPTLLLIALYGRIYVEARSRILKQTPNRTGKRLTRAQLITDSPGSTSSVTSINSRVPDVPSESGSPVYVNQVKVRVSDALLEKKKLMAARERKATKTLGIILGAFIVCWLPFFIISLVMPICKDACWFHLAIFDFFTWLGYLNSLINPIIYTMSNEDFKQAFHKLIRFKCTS
Outline: as §1

[3] = target: T3, cloned human or rodent CNS receptors, channels, and transporters (PDSP panel) (Homo sapiens, UniProt P28335); conditions: primary assay
T3 construct: expressed in transfected cells
T3 sequence (P28335 33-458): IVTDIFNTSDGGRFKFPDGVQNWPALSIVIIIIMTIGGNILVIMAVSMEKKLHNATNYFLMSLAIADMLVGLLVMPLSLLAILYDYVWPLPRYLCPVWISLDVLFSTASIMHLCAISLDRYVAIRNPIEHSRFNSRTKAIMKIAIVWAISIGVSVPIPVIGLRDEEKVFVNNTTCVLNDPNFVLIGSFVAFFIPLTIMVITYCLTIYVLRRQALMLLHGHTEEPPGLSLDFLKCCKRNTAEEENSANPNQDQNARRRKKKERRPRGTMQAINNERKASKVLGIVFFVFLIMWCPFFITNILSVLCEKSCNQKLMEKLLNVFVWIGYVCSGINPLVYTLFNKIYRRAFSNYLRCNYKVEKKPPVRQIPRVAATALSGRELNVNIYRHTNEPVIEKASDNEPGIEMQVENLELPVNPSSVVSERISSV
Outline: as §1

[4] = target: T4, cloned human or rodent CNS receptors, channels, and transporters (PDSP panel) (Homo sapiens, UniProt P21728); conditions: primary assay
T4 construct: expressed in transfected cells
T4 sequence (P21728 whole entry): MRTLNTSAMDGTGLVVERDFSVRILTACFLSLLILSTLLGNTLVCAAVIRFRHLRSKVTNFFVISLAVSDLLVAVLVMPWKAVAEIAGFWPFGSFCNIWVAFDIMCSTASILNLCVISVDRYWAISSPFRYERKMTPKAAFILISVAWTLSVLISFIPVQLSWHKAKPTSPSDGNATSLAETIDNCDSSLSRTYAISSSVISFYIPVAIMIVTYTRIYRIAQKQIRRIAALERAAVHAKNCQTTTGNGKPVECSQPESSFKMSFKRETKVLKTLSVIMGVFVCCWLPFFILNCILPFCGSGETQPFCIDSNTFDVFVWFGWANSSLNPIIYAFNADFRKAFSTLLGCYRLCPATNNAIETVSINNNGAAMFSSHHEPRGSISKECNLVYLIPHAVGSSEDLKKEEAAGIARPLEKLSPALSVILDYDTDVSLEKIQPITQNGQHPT
Outline: as §1

[5] = target: T5, cloned human or rodent CNS receptors, channels, and transporters (PDSP panel) (Homo sapiens, UniProt P14416); conditions: primary assay
T5 construct: expressed in transfected cells
T5 sequence (P14416 whole entry): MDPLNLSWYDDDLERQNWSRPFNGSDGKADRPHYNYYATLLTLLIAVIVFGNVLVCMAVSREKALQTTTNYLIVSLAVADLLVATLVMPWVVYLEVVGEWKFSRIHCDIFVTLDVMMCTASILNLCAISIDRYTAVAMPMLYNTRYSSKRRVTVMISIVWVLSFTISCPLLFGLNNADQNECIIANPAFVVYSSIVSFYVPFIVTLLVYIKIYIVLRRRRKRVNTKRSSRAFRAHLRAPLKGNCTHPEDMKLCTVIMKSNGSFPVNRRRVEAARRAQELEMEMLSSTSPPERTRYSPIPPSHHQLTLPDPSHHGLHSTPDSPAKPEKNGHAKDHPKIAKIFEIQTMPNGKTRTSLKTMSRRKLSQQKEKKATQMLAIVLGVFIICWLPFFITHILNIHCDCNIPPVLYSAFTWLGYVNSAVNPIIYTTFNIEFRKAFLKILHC
Outline: as §1

[6] = target: T6, cloned human or rodent CNS receptors, channels, and transporters (PDSP panel) (Homo sapiens, UniProt P35368); conditions: primary assay
T6 construct: expressed in transfected cells
T6 sequence (P35368 1-520): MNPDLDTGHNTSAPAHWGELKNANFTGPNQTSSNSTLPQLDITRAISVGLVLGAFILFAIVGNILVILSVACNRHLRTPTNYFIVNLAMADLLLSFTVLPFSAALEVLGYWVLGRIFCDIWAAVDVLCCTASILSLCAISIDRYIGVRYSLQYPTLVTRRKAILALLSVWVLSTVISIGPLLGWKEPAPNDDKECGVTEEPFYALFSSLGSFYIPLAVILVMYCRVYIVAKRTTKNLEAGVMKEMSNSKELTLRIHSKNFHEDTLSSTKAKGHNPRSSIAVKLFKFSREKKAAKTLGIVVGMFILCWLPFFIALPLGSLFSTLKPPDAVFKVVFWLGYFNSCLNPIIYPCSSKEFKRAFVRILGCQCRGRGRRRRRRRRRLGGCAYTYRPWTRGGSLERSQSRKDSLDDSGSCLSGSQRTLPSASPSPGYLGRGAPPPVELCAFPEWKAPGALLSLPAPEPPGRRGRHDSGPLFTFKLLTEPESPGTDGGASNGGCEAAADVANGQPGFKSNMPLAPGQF
Outline: as §1

[7] = target: T7, cloned human or rodent CNS receptors, channels, and transporters (PDSP panel) (Homo sapiens, UniProt P50406); conditions: primary assay
T7 construct: expressed in transfected cells
T7 sequence (P50406 whole entry): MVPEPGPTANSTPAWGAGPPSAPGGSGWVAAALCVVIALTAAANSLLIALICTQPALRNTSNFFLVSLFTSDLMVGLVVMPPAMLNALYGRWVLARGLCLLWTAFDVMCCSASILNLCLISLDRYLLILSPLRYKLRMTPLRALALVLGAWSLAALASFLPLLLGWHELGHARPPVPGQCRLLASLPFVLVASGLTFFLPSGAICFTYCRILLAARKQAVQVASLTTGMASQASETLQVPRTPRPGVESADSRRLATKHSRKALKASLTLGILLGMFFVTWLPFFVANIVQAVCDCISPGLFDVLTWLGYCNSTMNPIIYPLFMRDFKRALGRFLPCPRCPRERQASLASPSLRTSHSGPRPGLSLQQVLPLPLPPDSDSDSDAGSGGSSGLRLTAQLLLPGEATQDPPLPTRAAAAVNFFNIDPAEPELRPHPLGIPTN
Outline: as §1

[8] = target: T8, cloned human or rodent CNS receptors, channels, and transporters (PDSP panel) (Homo sapiens, UniProt P08173); conditions: primary assay
T8 construct: expressed in transfected cells
T8 sequence (P08173 1-479): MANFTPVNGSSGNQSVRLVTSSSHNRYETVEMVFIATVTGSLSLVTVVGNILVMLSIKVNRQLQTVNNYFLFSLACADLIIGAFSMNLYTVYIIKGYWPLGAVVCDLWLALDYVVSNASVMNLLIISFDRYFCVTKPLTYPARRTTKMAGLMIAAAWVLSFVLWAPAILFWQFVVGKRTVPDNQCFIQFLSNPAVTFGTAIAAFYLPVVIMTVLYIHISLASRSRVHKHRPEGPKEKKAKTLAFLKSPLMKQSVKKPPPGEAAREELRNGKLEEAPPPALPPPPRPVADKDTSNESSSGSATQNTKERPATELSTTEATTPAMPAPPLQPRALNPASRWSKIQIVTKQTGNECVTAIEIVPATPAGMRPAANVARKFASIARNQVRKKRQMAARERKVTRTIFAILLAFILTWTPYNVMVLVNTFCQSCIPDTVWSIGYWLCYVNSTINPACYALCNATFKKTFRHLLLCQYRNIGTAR
Outline: as §1

[9] = target: T9, cloned human or rodent CNS receptors, channels, and transporters (PDSP panel) (Rattus norvegicus, UniProt P16257); conditions: primary assay; for Inhibition 2: replicate 2; for Inhibition 3: replicate 3
T9 construct: expressed in transfected cells
Outline: as §1

c1cn2cc(-c3ccc4cn[nH]c4c3)nc(Nc3ccc(N4CCOCC4)cc3)c2n1 [UNC10302678A, Entospletinib (GS-9973)]
Inhibition 1 ([1]; Receptor 5-HT1D, 10 μM): 30.71%
Inhibition 2 ([1]; Receptor 5-HT1D, 10 μM): 10.31%
Inhibition 3 ([1]; Receptor 5-HT1D, 10 μM): -25.09%
Inhibition 4 ([1]; Receptor 5-HT1D, 10 μM): 3.23%
Mean % ([1]; Receptor 5-HT1D, 10 μM, mean of Inhibition 1-4): 4.79%
Inhibition 1 ([2]; Receptor 5-HT1B, 10 μM): 21.82%
Inhibition 2 ([2]; Receptor 5-HT1B, 10 μM): -6.09%
Inhibition 3 ([2]; Receptor 5-HT1B, 10 μM): 2.36%
Inhibition 4 ([2]; Receptor 5-HT1B, 10 μM): -8.65%
Mean % ([2]; Receptor 5-HT1B, 10 μM, mean of Inhibition 1-4): 2.36%
Inhibition 1 ([3]; Receptor 5-HT2C, 10 μM): -15.71%
Inhibition 2 ([3]; Receptor 5-HT2C, 10 μM): 5.4%
Inhibition 3 ([3]; Receptor 5-HT2C, 10 μM): -17.18%
Inhibition 4 ([3]; Receptor 5-HT2C, 10 μM): -19.14%
Mean % ([3]; Receptor 5-HT2C, 10 μM, mean of Inhibition 1-4): -11.66%
Inhibition 1 ([4]; Receptor D1, 10 μM): 2.51%
Inhibition 2 ([4]; Receptor D1, 10 μM): -3%
Inhibition 3 ([4]; Receptor D1, 10 μM): -32.95%
Inhibition 4 ([4]; Receptor D1, 10 μM): 7.37%
Mean % ([4]; Receptor D1, 10 μM, mean of Inhibition 1-4): -6.52%
Inhibition 1 ([5]; Receptor D2, 10 μM): 15.89%
Inhibition 2 ([5]; Receptor D2, 10 μM): 4.51%
Inhibition 3 ([5]; Receptor D2, 10 μM): -1.13%
Inhibition 4 ([5]; Receptor D2, 10 μM): -7.35%
Mean % ([5]; Receptor D2, 10 μM, mean of Inhibition 1-4): 2.98%
Inhibition 1 ([6]; Receptor Alpha1B, 10 μM): 3.98%
Inhibition 2 ([6]; Receptor Alpha1B, 10 μM): -28.67%
Inhibition 3 ([6]; Receptor Alpha1B, 10 μM): -18.82%
Inhibition 4 ([6]; Receptor Alpha1B, 10 μM): -2.78%
Mean % ([6]; Receptor Alpha1B, 10 μM, mean of Inhibition 1-4): -11.57%
Inhibition 1 ([7]; Receptor 5-HT6, 10 μM): -41.25%
Inhibition 2 ([7]; Receptor 5-HT6, 10 μM): -29.65%
Inhibition 3 ([7]; Receptor 5-HT6, 10 μM): -11.39%
Inhibition 4 ([7]; Receptor 5-HT6, 10 μM): -15.68%
Mean % ([7]; Receptor 5-HT6, 10 μM, mean of Inhibition 1-4): -24.49%
Inhibition 1 ([8]; Receptor M4, 10 μM): 35.72%
Inhibition 2 ([8]; Receptor M4, 10 μM): 0.8%
Inhibition 3 ([8]; Receptor M4, 10 μM): 6.09%
Inhibition 4 ([8]; Receptor M4, 10 μM): 23.54%
Mean % ([8]; Receptor M4, 10 μM, mean of Inhibition 1-4): 16.54%
Inhibition 1 ([9]; Receptor PBR, 10 μM): 4.64% and -2.11%
Inhibition 4 ([9]; Receptor PBR, 10 μM): 21.43% and 15.83%
Mean % ([9]; Receptor PBR, 10 μM, mean of Inhibition 1-4): 13.23% and 8.44%

CNc1nc(C)nc(N[C@H]2CCC[C@@H](C(=O)NCc3ccc(C#N)cc3C(F)(F)F)C2)n1 [UNC10302679A, GSK2256294A]
Mean % ([1]; 5-HT1D, mean inhibition): 6.14%
Inhibition 1 ([1]; 5-HT1D, replicate 1): 26.13%
Inhibition 2 ([1]; 5-HT1D, replicate 2): 1.56%
Inhibition 3 ([1]; 5-HT1D, replicate 3): 1.56%
Inhibition 4 ([1]; 5-HT1D, replicate 4): -4.69%
Mean % ([2]; 5-HT1B, mean inhibition): -2.56%
Inhibition 1 ([2]; 5-HT1B, replicate 1): 6.88%
Inhibition 2 ([2]; 5-HT1B, replicate 2): -14.35%
Inhibition 3 ([2]; 5-HT1B, replicate 3): 0.2%
Inhibition 4 ([2]; 5-HT1B, replicate 4): -2.95%
Mean % ([3]; 5-HT2C, mean inhibition): -14.6%
Inhibition 1 ([3]; 5-HT2C, replicate 1): 12.76%
Inhibition 2 ([3]; 5-HT2C, replicate 2): -11.29%
Inhibition 3 ([3]; 5-HT2C, replicate 3): -33.87%
Inhibition 4 ([3]; 5-HT2C, replicate 4): -26.01%
Mean % ([4]; D1, mean inhibition): 9.96%
Inhibition 1 ([4]; D1, replicate 1): 12.39%
Inhibition 2 ([4]; D1, replicate 2): 11.9%
Inhibition 3 ([4]; D1, replicate 3): 10.77%
Inhibition 4 ([4]; D1, replicate 4): 4.78%
Mean % ([5]; D2, mean inhibition): -7.22%
Inhibition 1 ([5]; D2, replicate 1): 3.31%
Inhibition 2 ([5]; D2, replicate 2): -5.21%
Inhibition 3 ([5]; D2, replicate 3): -10.66%
Inhibition 4 ([5]; D2, replicate 4): -16.31%
Mean % ([6]; Alpha1B, mean inhibition): -0.37%
Inhibition 1 ([6]; Alpha1B, replicate 1): -2.21%
Inhibition 2 ([6]; Alpha1B, replicate 2): 6.62%
Inhibition 3 ([6]; Alpha1B, replicate 3): -2.78%
Inhibition 4 ([6]; Alpha1B, replicate 4): -3.12%
Mean % ([7]; 5-HT6, mean inhibition): -6.87%
Inhibition 1 ([7]; 5-HT6, replicate 1): 12.58%
Inhibition 2 ([7]; 5-HT6, replicate 2): -11.55%
Inhibition 3 ([7]; 5-HT6, replicate 3): -17.27%
Inhibition 4 ([7]; 5-HT6, replicate 4): -11.23%
Mean % ([8]; M4, mean inhibition): 14.93%
Inhibition 1 ([8]; M4, replicate 1): 10.45%
Inhibition 2 ([8]; M4, replicate 2): 4.02%
Inhibition 3 ([8]; M4, replicate 3): 7.46%
Inhibition 4 ([8]; M4, replicate 4): 37.78%
Mean % ([9]; PBR, mean inhibition): 61.99% and 50.52%
Inhibition 1 ([9]; PBR, replicate 1): 64.51% and 57.62%
Inhibition 2 ([9]; PBR): 61.79% and 51.24%
Inhibition 3 ([9]; PBR): 61.7% and 45.98%
Inhibition 4 ([9]; PBR, replicate 4): 59.94% and 47.25%

CCC(=O)N1CCC(NC(=O)Nc2ccc(OC(F)(F)F)cc2)CC1 [UNC10302681A, TPPU]
Mean % ([1]; 5-HT1D, mean inhibition): 0.73%
Inhibition 1 ([1]; 5-HT1D, replicate 1): 17.8%
Inhibition 2 ([1]; 5-HT1D, replicate 2): -3.44%
Inhibition 3 ([1]; 5-HT1D, replicate 3): -7.6%
Inhibition 4 ([1]; 5-HT1D, replicate 4): -3.85%
Mean % ([2]; 5-HT1B, mean inhibition): -0.64%
Inhibition 1 ([2]; 5-HT1B, replicate 1): 7.08%
Inhibition 2 ([2]; 5-HT1B, replicate 2): 0.59%
Inhibition 3 ([2]; 5-HT1B, replicate 3): -3.14%
Inhibition 4 ([2]; 5-HT1B, replicate 4): -7.08%
Mean % ([3]; 5-HT2C, mean inhibition): -8.1%
Inhibition 1 ([3]; 5-HT2C, replicate 1): 3.44%
Inhibition 2 ([3]; 5-HT2C, replicate 2): -10.8%
Inhibition 3 ([3]; 5-HT2C, replicate 3): -1.96%
Inhibition 4 ([3]; 5-HT2C, replicate 4): -23.07%
Mean % ([4]; D1, mean inhibition): -1.82%
Inhibition 1 ([4]; D1, replicate 1): -5.26%
Inhibition 2 ([4]; D1, replicate 2): -2.83%
Inhibition 3 ([4]; D1, replicate 3): -3.8%
Inhibition 4 ([4]; D1, replicate 4): 4.61%
Mean % ([5]; D2, mean inhibition): -2.08%
Inhibition 1 ([5]; D2, replicate 1): 8.4%
Inhibition 2 ([5]; D2, replicate 2): -12.22%
Inhibition 3 ([5]; D2, replicate 3): -3.46%
Inhibition 4 ([5]; D2, replicate 4): -1.03%
Mean % ([6]; Alpha1B, mean inhibition): 7.22%
Inhibition 1 ([6]; Alpha1B, replicate 1): 0.2%
Inhibition 2 ([6]; Alpha1B, replicate 2): 16.24%
Inhibition 3 ([6]; Alpha1B, replicate 3): 7.3%
Inhibition 4 ([6]; Alpha1B, replicate 4): 5.13%
Mean % ([7]; 5-HT6, mean inhibition): -0.91%
Inhibition 1 ([7]; 5-HT6, replicate 1): 25.92%
Inhibition 2 ([7]; 5-HT6, replicate 2): -7.74%
Inhibition 3 ([7]; 5-HT6, replicate 3): -9.33%
Inhibition 4 ([7]; 5-HT6, replicate 4): -12.5%
Mean % ([8]; M4, mean inhibition): 27.22%
Inhibition 1 ([8]; M4, replicate 1): 20.33%
Inhibition 2 ([8]; M4, replicate 2): 6.55%
Inhibition 3 ([8]; M4, replicate 3): 30.66%
Inhibition 4 ([8]; M4, replicate 4): 51.34%
Mean % ([9]; PBR, mean inhibition): 4.31% and 5.42%
Inhibition 1 ([9]; PBR, replicate 1): 20.73% and 18.86%
Inhibition 2 ([9]; PBR): -4.07% and -6.82%
Inhibition 3 ([9]; PBR): -2.57% and 2.75%
Inhibition 4 ([9]; PBR, replicate 4): 3.14% and 6.9%
